Results taken from article PMC8703873, “Structure and Activity of a Selective Antibiofilm Peptide SK-24 Derived from the NMR Structure of Human Cathelicidin LL-37” (Pharmaceuticals, 2021).
Values after ≈ are worked out from the molar mass of the structure shown. Non-standard residues stand in square brackets, D forms with d. Residues, ends and D or L forms follow the SMILES beside them. Bip = N[C@@H](Cc1ccc(-c2ccccc2)cc1)C(=O)O

Experiments:
[1] = tested on: A. baumannii B28-16; assay: Membrane permeabilization (propidium iodide); format: cell-based, Acinetobacter baumannii; conditions: peptide 16 µM; propidium iodide fluorescence, 2 h, PBS, 37 °C
Experimental: (§1) Membrane permeabilization was evaluated as described. In brief, bacteria were inoculated and grown overnight. A second inoculation was made and let bacteria grow to the exponential phase. Bacteria were then spun, washed, and resuspended in the same volume of PBS. A series of peptide solutions (10×) was made via two-fold dilution in a 96-well plate (10 µL each). All wells were aliquoted with 2 µL of propidium iodide (20 µM), followed by adding 88 µL of S. aureus USA300 or A. baumannii B28-16 (OD600 ~0.11 in PBS). The plate was incubated at 37 °C with continuous shaking at 100 rpm in a FLUOstar Omega microplate reader (BMG Labtech Inc., Cary, NC, USA). Fluorescence was recorded every 5 min for 2 h with excitation and emission wavelengths of 485 and 620 nm. The data were analyzed by the vendor’s software using averaged values from duplicated experiments.

[2] = tested on: S. aureus USA300; format: cell-based, Staphylococcus aureus
Experimental: (§2) The antibiotic-resistant pathogens used in this study include the Gram-positive bacteria Enterococcus faecium V286-17 and Staphylococcus aureus USA300 LAC and the Gram-negative bacteria Klebsiella pneumoniae E406-17, Acinetobacter baumannii B28-16, Pseudomonas aeruginosa E411-17, and Escherichia coli E423-17. All bacteria were cultivated in tryptic soy broth (TSB) at 37 °C, 220 rpm.
(§3) The antibacterial activity of peptides was evaluated using a standard broth microdilution protocol with minor modifications. In brief, peptides were made at various concentrations, 10 μL per well in a 96-well polystyrene microplate. Logarithmic phase bacterial cultures (i.e., optical density (OD) at 600 nm ≈ 0.5) were diluted to 0.001 OD, and aliquots of 90 μL were added to each well. Untreated bacterial culture and medium were included as positive and negative controls, respectively. Plates were incubated at 37 °C overnight and read at 630 nm using a ChroMate Microplate Reader (Awareness Technology, Palm City, FL, USA). […] Our previously designed peptide 17BIPHE2 [32] was included as a positive control, and RI-10, a peptide without antibacterial activity in rich media, was utilized as a negative control.

[3] = tested on: A. baumannii B28-16 preformed biofilms; assay: Disruption of preformed biofilms (XTT); format: cell-based, Acinetobacter baumannii
Experimental: (§4) The antibiofilm activities of peptides against the preformed biofilms of A. baumannii B28-16 and S. aureus USA300 LAC were evaluated as follows. Bacteria in the logarithmic growth phase were adjusted to a cell density of 10^5 colony forming unit (CFU)/mL. Two hundred microliter cells were seeded into each well of the 96-well plates. The plates were incubated at 37 °C to allow for the formation of biofilm for 24, 48, and 72 h, respectively. The planktonic cells were then removed, followed by a wash. The biofilms were then treated with 20 µL of 10× two-fold diluted peptides and 180 µL of fresh TSB media for 24 h at 37 °C. Cultures treated with water without peptide served as the positive control, and media treated with water was used as the negative control. To quantify the antibiofilm activity of the peptides, the XTT [2, 3-bis (2-methyloxy-4-nitro-5-sulfophenyl)-2H-tertazolium-5-carboxanilide] assay staining method was used to quantitate the live cells. Absorbance was read at 450 nm using a ChroMate microliter plate reader. The percentage biofilm growth for the peptide was plotted by assuming 100% biofilm growth in untreated bacterial control wells. Data were represented as mean ± standard deviation (SD). The data are statistically significant at p < 0.05. Plots were generated using GraphPad Prism v7 (GraphPad Software, San Diego, CA, USA).

[4] = tested on: S. aureus USA300 LAC preformed biofilms; conditions: S. aureus USA300 LAC and other clinical strains (USA200, USA400, Mu50); cited from earlier work
Experimental: Here, we compared the antibiofilm activity of SK-24 with that of GF-17, GI-20, and 17BIPHE2 against the 24 h preformed biofilms of S. aureus USA300. […] Only SK-24 a ...

[5] = tested on: K. pneumoniae E406-17; format: cell-based, Klebsiella pneumoniae; conditions: E406-17
Experimental: as §2, §3

[6] = tested on: S. aureus USA300 LAC; assay: Membrane permeabilization (propidium iodide); format: cell-based, Staphylococcus aureus; conditions: peptide 8 µM; propidium iodide fluorescence, 2 h, PBS, 37 °C
Experimental: as §1

[7] = tested on: S. aureus USA300 LAC preformed biofilms; assay: Disruption of preformed biofilms (XTT); format: cell-based, Staphylococcus aureus
Experimental: as §4

[8] = tested on: P. aeruginosa E411-17; format: cell-based, Pseudomonas aeruginosa; conditions: E411-17
Experimental: as §2, §3

[9] = HPLC retention time (measure of peptide hydrophobicity); format: physicochemical; conditions: chromatographic, Waters C8 symmetry hydrophobic column, as described in ref 34; used as indicator of peptide hydrophobicity
From the text: In the membrane-bound LL-37 structure determined by 3D NMR spectroscopy, a hydrophobic gap exists (Figure 1A). The location of a hydrophilic S9 on the hydrophobic surface of LL-37 splits the long helix into two hydrophobic domains (gold sticks). The SK-24 peptide we identified here corresponds to the long hydrophobic domain [26]. The amino acid sequence of SK-24, along with LL-37 and its derived antimicrobial peptides, is depicted in Figure 1B. Peptide parameters, including net charge, hydrophobic content, Boman index, GRAVY, hydrophobicity, and hydrophobic moment of each peptide, were calculated using online tools, such as the APD [8] and HeliQuest (Table 1). Except for the shortest RI-10 (net charge +3), LL-37 and its other derived peptides have net charges +5 or +6, above the average net charge (+3.3) of natural antimicrobial peptides registered in the APD [8, 35, 36]. Overall, the hydrophobic percentages (Pho) of these peptides calculated in the APD are proportional to the hydrophobicity and hydrophobic moment calculated by HeliQuest in Table 1. Of note, LL-37 has the highest net charge (+6) and Boman index but the lowest Pho%, GRAVY, and hydrophobic moment.
All peptides were chemically synthesized and purified to >95% (Genemed Synthesis, San Antonio, TX, USA). The quality of each peptide was determined based on mass spectrometry (MS) and high-performance liquid chromatography (HPLC). Peptide stock solutions were freshly made by solubilizing in autoclaved distilled water, and their concentrations were quantitated using UV spectroscopy based on the absorbance difference at 215 and 225 nm as described. Peptide retention time was measured on a Waters C8 symmetry hydrophobic column as described. Other chemicals were purchased from Sigma (St. Louis, MO, USA) unless specified.

[10] = tested on: A. baumannii B28-16; format: cell-based, Acinetobacter baumannii
Experimental: as §2, §3

## CC(C)C[C@H](NC(=O)[C@H](CC(N)=O)NC(=O)[C@H](CCCNC(=N)N)NC(=O)[C@@H](CC(C)C)NC(=O)[C@H](Cc1ccc(-c2ccccc2)cc1)NC(=O)[C@H](CC(=O)O)NC(=O)[C@H](CCCCN)NC(=O)[C@@H](CC(C)C)NC(=O)[C@H](CCCNC(=N)N)NC(=O)[C@H](CCC(N)=O)NC(=O)[C@@H](NC(=O)[C@@H](CC(C)C)NC(=O)[C@H](CCCNC(=N)N)NC(=O)[C@H](CCCCN)NC(=O)[C@H](Cc1ccc(-c2ccccc2)cc1)NC(=O)CN)C(C)C)C(=O)N[C@H](C(N)=O)C(C)C [Peptide 17BIPHE2] (H-G[Bip]KR[dL]VQR[dL]KD[Bip][dL]RNLV-NH2; N-terminus assumed)
[1]
  Membrane permeation: superior to SK-24
[2]
  MIC: 4 µM (≈ 9.02 µg/mL)
[3]; 72 h preformed biofilms, peptide 64 μM, highest concentration tested
  Biofilm disruption: ~ 70%
[3]; biofilms established for 48 h, 24 h treatment
  Disruption of 48 h biofilms: dose-dependent biofilm disruption
[3]; biofilms established in 24 h, 24 h treatment
  Reduction of 24 h biofilms: dose-dependent manner
[4]
  Disruption of 24 h preformed biofilms (words, found previously): highly effective
[5]
  MIC: 4 to 8 µM
[6]
  Membrane permeation: more powerful
[7]; 24 h preformed biofilms of S. aureus USA300, XTT
  Antibiofilm effect on 24 h preformed biofilms: antibiofilm effect in a dose-dependent manner
[7]; 24 h preformed biofilms, peptide 32 μM, relative to untreated control = 100%
  Staphylococcal biofilm remaining (reduced to): ~ 25%
[8]
  MIC: 8 µM (≈ 18 µg/mL)
[9]
  tHPLC (HPLC retention time): 10.753 min
[10]
  MIC: 4 to 8 µM
